For 62 compounds, inhibition and IC50 results are on record in patent US12617777B2, “GPR84 antagonists and uses thereof” (Liminal BioSciences Limited, priority 2021, dated 2026).

This test has as its target T1, human GPR84 receptor (Homo sapiens, UniProt Q9NQS5).
T1 construct: host or cells: HEK293, transient transfection
The experiment in a line: Gαi biosensor BRET assay in HEK293 cells (antagonism of ZQ-16). Format: cell-based. Particulars: for inhibition at 10 µM: HEK293, single concentration 10 μM (designated F); for inhibition at 25 µM: HEK293, single concentration 25 μM (designated I); for inhibition at 2 µM: HEK293, single concentration 2 μM (designated A); for IC50: HEK293 cells, antagonism of 200 nmol/L ZQ-16. The essentials:
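Antagonist mode: test compound 5 min at 37° C, followed by ZQ-16 agonist (200 nmol/L, 5 min, room temperature), in HEK293 cells transfected with GPR84 plus Rluc8-tagged Gαi2, GFP10-Gγ2 and Gβ1. Readout as GFP10/Rluc8 emission ratio after 5 μmol/L coelenterazine 400A, net of Rluc8-only and vehicle signal.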
(In general: Bioluminescence resonance energy transfer reports proximity on the nanometre scale.)

Usually inhibition stands for the drop in the measured response relative to a control, in per cent. Low values mean little suppression, high ones strong suppression. Usually IC50 stands for the concentration that gives 50% inhibition. A low value points to greater potency in that assay.

SMILES strings stand for the structures.

T1 sequence (Q9NQS5 whole entry): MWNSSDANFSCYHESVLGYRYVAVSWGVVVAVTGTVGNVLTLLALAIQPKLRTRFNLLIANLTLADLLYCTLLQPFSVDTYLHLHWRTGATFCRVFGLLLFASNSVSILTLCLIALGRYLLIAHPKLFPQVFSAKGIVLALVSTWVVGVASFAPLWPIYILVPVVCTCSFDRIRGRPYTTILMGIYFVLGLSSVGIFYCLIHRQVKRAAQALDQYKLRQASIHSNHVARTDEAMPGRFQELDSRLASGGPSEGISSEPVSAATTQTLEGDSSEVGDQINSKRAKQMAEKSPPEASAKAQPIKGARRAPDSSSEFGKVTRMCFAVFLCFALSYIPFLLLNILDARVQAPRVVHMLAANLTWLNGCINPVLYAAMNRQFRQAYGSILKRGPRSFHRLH

In the case of `Cc1cc(C2CCOCC2)ccc1-c1cn(CC2CCCCO2)nn1` (stereo not drawn) [Compound I-485], the inhibition at 10 µM is at most 25%. Take `COC(Cn1cc(-c2ccc(C#CC3CC3)cc2C)nn1)c1ccccc1` (stereo not drawn) [Compound I-73]: the inhibition at 25 µM is at most 25%.

`Cc1ccc(C#CC2CC2)cc1Sc1cn(CC2OCC(C)(C)CO2)nn1` [Compound I-781, 4-((5-(cyclopropylethynyl)-2-methylphenyl)thio)-1-((5,5-dimethyl-1,3-dioxan-2-yl)methyl)-1H-1,2,3-triazole] displayed an inhibition at 10 µM above 75%. As for `Cc1cc(C#CCN)ccc1-c1cn(CC2OCC(C)(C)CO2)nn1` [Compound I-690], the inhibition at 10 µM is 25 to 50%. Turning to `CC(C)Oc1cc(N2CC(C)(CO)C2)ccc1-c1cn(CC2OCC(C)(C)CO2)nn1` [Compound I-678], the inhibition at 2 µM was above 75% and the IC50 was 300 to 1000 nM.

Regarding `CCc1cc(C#CCN(C)CC2CC2)cnc1-c1cn(CC2CCCCO2)nn1` (stereo not drawn) [Compound I-276], the inhibition at 10 µM is above 75%.

In turn, `Cc1cc(N2CCN(C(C)c3ccccn3)CC2)ccc1-c1cn(CC2OCC(C)(C)CO2)cn1` (stereo not drawn) [Compound I-828] came in with an inhibition at 10 µM of 50 to 75% and an IC50 of 300 to 1000 nM. In turn, `CC1(C)COC(Cn2cc(-c3ccc(N4CC(C)(CO)C4)cc3CC(F)(F)F)nn2)C1` (stereo not drawn) [Compound I-740] returned an inhibition at 2 µM above 75% and a half-maximal inhibitory concentration (IC50) of at most 300 nM.

On to `Cc1cc(N2CCN(Cc3ccccc3)CC2)ccc1-c1cn(CC2CCCCO2)nn1` (stereo not drawn) [Compound I-140], for which the inhibition at 10 µM fell in the range of 25 to 50%. The compound `FC1(F)CC(C#Cc2cnc(-c3cn(CC4OCC5(CC5)CO4)nn3)c(OC3CC3)c2)C1` (stereo not drawn) [Compound I-862] yielded an inhibition at 10 µM of 50 to 75%. `CCc1cc(C#CC2CC2)cnc1-c1cn(CC2CCOCC2)nn1` [Compound I-274] had an inhibition at 10 µM of 50 to 75%. `Cc1cc(C#CCNc2ccccc2)ccc1-c1cn(CCC2CCCCO2)nn1` (stereo not drawn) [Compound I-306] registered an inhibition at 10 µM of 25 to 50%. With `CCOC(c1cn(CC2CCCCO2)nn1)c1cc(C#CC2CC2)ccc1C` (stereo not drawn) [Compound I-594], the inhibition at 10 µM is above 75% and the 50% inhibitory concentration (IC50) was at most 300 nM. The compound `OCc1cc(C#CC2CC2)ccc1-c1cn(CC2CCCCO2)nn1` (stereo not drawn) [Compound I-216] came in with an inhibition at 10 µM of at most 25%.

On to `Cc1c(-c2ccc(C#CCO)cc2)nnn1CC1CCCCO1` (stereo not drawn) [Compound I-243], for which the inhibition at 10 µM fell in the range of 25 to 50%. Turning to `C(#CC1CC1)c1ccc(-c2cn(CC3CCCCO3)nn2)s1` (stereo not drawn) [Compound I-38], the inhibition at 25 µM lay in the range of 50 to 75%. Compound `CC1(C)COC(Cn2cc(-c3ccc(C#CCN4CC(C)(C)C4)cc3OC3CC3)nn2)OC1` [Compound I-788] returned an inhibition at 10 µM above 75% and an IC50 of at most 300 nM. As for `CC1(C)COC(Cn2cc(-c3c(Cl)cc(C#CC4CC4)c[n+]3[O-])nn2)OC1` [Compound I-817], the inhibition at 10 µM is above 75%. In turn, `Cc1cc(C#CCNC(=O)OC(C)(C)C)cnc1-c1cn(CC2CCCCO2)nn1` (stereo not drawn) [Compound I-538] gave an inhibition at 10 µM above 75% and an IC50 of 300 to 1000 nM.

Regarding `COC(c1cn(CC2OCC(F)(F)CO2)nn1)c1cc(C#CC2CC2)ccc1C` (stereo not drawn) [Compound I-725], the inhibition at 10 µM was above 75% and the IC50 was 300 to 1000 nM.

In the case of `Cc1cc(N2CC3(CCCN3Cc3ccccn3)C2)ccc1-c1cn(CC2CCCCO2)nn1` (stereo not drawn) [Compound I-590], the inhibition at 10 µM is at most 25%. Under “HEK293, single concentration 5 μM (designated D)”, `Cc1c(-c2ccc(OCc3ccccc3)cc2)nnn1CC1CCCCO1` (stereo not drawn) [Compound I-46] displayed an inhibition at 5 µM of at most 25%. In turn, `Cc1cc(-c2cn(CC3CCCCO3)nn2)nnc1C#CC1CC1` (stereo not drawn) [Compound I-434] gave an inhibition at 10 µM of at most 25%. As to `Cc1cc(N2CC3(C2)CN(c2ccccn2)C3)ccc1-c1cn(CC2CCCCO2)nn1` (stereo not drawn) [Compound I-652], the inhibition at 10 µM is at most 25%.

`CCc1ccc(C#CC2CC2)cc1-c1cn(CC2CCCCO2)nn1` (stereo not drawn) [Compound I-160] yielded an inhibition at 10 µM above 75% and an IC50 above 3000 nM. `Cc1cc(OCC(F)(F)F)cnc1-c1cn(CC2OCC(C)(C)CO2)nn1` [Compound I-638] registered an inhibition at 10 µM of at most 25%. Consider `COc1ccc(C)c(N(C)c2cn(CC3OCC(C)(C)CO3)nn2)c1` [Compound I-814], for which the inhibition at 10 µM is at most 25%. The compound `CN(C)c1cc(N2CC(C)(C)C2)ccc1-c1cn(CC2CCCCO2)nn1` (stereo not drawn) [Compound I-202] registered an inhibition at 10 µM above 75% and an IC50 of 1000 to 3000 nM. Turning to `Cc1cc(C#CCN(C)CC2CC2)cnc1-c1cn(CC2CCCCO2)nn1` (stereo not drawn) [Compound I-251], the inhibition at 10 µM was above 75%. On the same count and under the same terms, then `Cc1cc(N2CC(Nc3cnn(C)c3)C2)ccc1-c1cn(CC2CCCCO2)nn1` (stereo not drawn) [Compound I-541], with 25 to 50%. Take `Cc1cc(N2CC(C)(C)C2)cnc1-c1cn(CC2CCCCO2)nn1` (stereo not drawn) [Compound I-380]: the inhibition at 10 µM was above 75%. `O=c1oc(CC2CCCCO2)nn1Cc1ccc(C#CC2CC2)cc1` (stereo not drawn) [Compound I-19] yielded an inhibition at 10 µM above 75%. `Cc1ccc(C#CC2CC2)cc1Cc1cn(CC2OCC(C)(C)CO2)nn1` [Compound I-669, 4-(5-(cyclopropylethynyl)-2-methylbenzyl)-1-((5,5-dimethyl-1,3-dioxan-2-yl)methyl)-1H-1,2,3-triazole] registered an inhibition at 2 µM above 75% and an IC50 of at most 300 nM.

In turn, `Cc1cc(C#CCN2CC(C)(C)C2)cnc1-c1cn(CCc2ncccn2)nn1` [Compound I-717] registered an inhibition at 10 µM of at most 25%. Still for that read-out and setting: the figure for `Cc1cc(N2CC(C)(C)C2)c(C#CC2CC2)cc1-c1cn(C[C@H]2CCCCO2)nn1` [Compound I-435] is at most 25%; for `Cc1cc(N2CC(C)(CO)C2)cnc1-c1cn(CC2Oc3ccccc3O2)nn1` [Compound I-628] it is above 75%. The compound `CC1(C)COC(Cn2cc(-c3ccc(N4CCN(Cc5ccccn5)CC4)cc3CC(F)(F)F)nn2)OC1` [Compound I-747] gave an inhibition at 2 µM above 75% and an IC50 of at most 300 nM. `Cc1cc(N2CC(C)(CN(C)c3ccccn3)C2)ccc1-c1cn(CC2CCCCO2)nn1` (stereo not drawn) [Compound I-675]: the inhibition at 10 µM is above 75%. Take `Cc1cc(C#CCN2CCCC2C(=O)O)ccc1-c1cn(CC2CCCCO2)nn1` (stereo not drawn) [Compound I-247]: the inhibition at 10 µM is at most 25%.

The compound `Cc1cc(N2CCC(CO)CC2)ccc1-c1cn(CC2CCCCO2)nn1` (stereo not drawn) [Compound I-445] yielded an inhibition at 10 µM of 50 to 75%. On to `Cc1cc(C#CC2CC2)ccc1-c1cn(C[C@H]2CC[C@@H](C)O2)nn1` [Compound I-225], for which the inhibition at 10 µM was in the range of 25 to 50%. Take `CC(=O)N1CCCCC1Cn1cc(-c2ccc(C#CC3CC3)cc2C)nn1` (stereo not drawn) [Compound I-139]: the inhibition at 10 µM was at most 25%. Compound `CCn1c(C#CC2CC2)cnc1-c1cn(CC2CCCCO2)nn1` (stereo not drawn) [Compound I-285] had an inhibition at 10 µM above 75%. Take `C(#CC1CC1)c1ccc(-c2cn(CC3OCC4(CCC4)O3)nn2)c(OC2CC2)c1` (stereo not drawn) [Compound I-798]: the inhibition at 10 µM is above 75%. `Cc1c(-c2ccc(C#CC3CC3)cc2)nnn1CC1CCCCS1(=O)=O` (stereo not drawn) [Compound I-574] displayed an inhibition at 10 µM of at most 25%. The same measure, in the same setting: then `CC(C)c1cc(N2CC(C)(C)C2)cnc1-c1cn(CC2CCCCO2)nn1` (stereo not drawn) [Compound I-461], with above 75%. `CC1(C)CCC(Cn2cc(-c3ncc(C#CC4CC4)cc3OC3CC3)nn2)OC1` (stereo not drawn) [Compound I-739] came in with an inhibition at 2 µM above 75% and an IC50 of at most 300 nM. `COCC1(C)CN(c2ccc(-c3cn(CC4OCC(C)(C)CO4)nn3)c(N(C)C)c2)C1` [Compound I-706] displayed an inhibition at 10 µM above 75% and an IC50 of 300 to 1000 nM. The compound `Cc1cc(N2CC(C)(CN3CC(C)(C)C3)C2)ccc1-c1cn(CC2CCCCO2)nn1` (stereo not drawn) [Compound I-660] yielded an inhibition at 10 µM of at most 25%.

`Cc1cc(C#CC2CC2)ccc1-c1cn(CC2CCCOC2)nn1` (stereo not drawn) [Compound I-364] came in with an inhibition at 10 µM of 25 to 50%.

As for `C(#CC1CC1)c1cnc(-c2cn(CC3OCC4(CC4)CO3)nn2)c(OC2CC2)c1` [Compound I-785], the inhibition at 2 µM is above 75% and the IC50 is at most 300 nM. In turn, `Cc1cc(C#CC2CC2)ccc1-c1cnn(CC2CCCCO2)c1C` (stereo not drawn) [Compound I-327] came in with an inhibition at 10 µM of at most 25%.

As for `Cc1cc(C#CCN(C)C2CC2)ccc1-c1cn(CC2OCC(C)(C)CO2)nn1` [Compound I-698], the inhibition at 10 µM is above 75% and the IC50 lay in the range of 300 to 1000 nM.

`CN1Cc2c(C#CC3CC3)ccc(-c3cn(CC4CCCCO4)nn3)c2C1` (stereo not drawn) [Compound I-268] came in with an inhibition at 10 µM of at most 25%. For the compound `Cc1cc(C#CC2CC2)ccc1-c1cn(CC2COCCN2C)nn1` (stereo not drawn) [Compound I-527], the inhibition at 10 µM is at most 25%. Consider `Cc1c(C#CC2CC2)cccc1-c1cn(CC2CCCCO2)nn1` (stereo not drawn) [Compound I-80], for which the inhibition at 25 µM was at most 25%.

For the compound `Cc1cc(OC2CN3CCC2CC3)ccc1-c1cn(CC2CCCCO2)nn1` (stereo not drawn) [Compound I-465], the inhibition at 10 µM was at most 25%. `CC(C)(C)C#Cc1ccc(-c2cn(CC3CCCCO3)nn2)cc1` (stereo not drawn) [Compound I-58] gave an inhibition at 25 µM of at most 25%. The compound `CC(=O)N(c1cn(CC2OCC(C)(C)CO2)nn1)c1cc(C#CC2CC2)ccc1C` [Compound I-792, N-(5-(cyclopropylethynyl)-2-methylphenyl)-N-(1-((5,5-dimethyl-1,3-dioxan-2-yl)methyl)-1H-1,2,3-triazol-4-yl)acetamide] returned an inhibition at 2 µM above 75% and a half-inhibitory concentration (IC50) of 300 to 1000 nM. `CCc1cc(C#CCN2CCC(F)(F)CC2)cnc1-c1cn(CC2CCCCO2)nn1` (stereo not drawn) [Compound I-275] registered an inhibition at 10 µM above 75%.

The compound `CC1(CO)CN(c2ccc(-c3cn(CC4OCC5(CCC5)O4)nn3)c(CC(F)(F)F)c2)C1` (stereo not drawn) [Compound I-796] gave a half-maximal inhibitory concentration (IC50) of at most 300 nM. `Cc1c(-c2ccc(C#CCNc3ccccc3)cc2)nnn1CC1CCCCO1` (stereo not drawn) [Compound I-235] had an inhibition at 10 µM of 25 to 50%.
